Results: patent publication US12583818B2 (DAEGU-GYEONGBUK MEDICAL INNOVATION FOUNDATION, priority 2020, dated 2026)
Like-named read-outs stand apart in the source and are kept apart here.

What was measured:
Pin1 = target: T1, Pin1 (Homo sapiens, UniProt Q13526); assay: Evaluation of Pin1 enzyme inhibitory activity (Sensolyte Green Pin1 assay kit); format: biochemical
T1 construct: purchased Anaspec
Procedure: In order to evaluate the Pin1 enzyme inhibitory activity of the compound represented by formula 1 according to the present invention, the following experiment was performed, and the results are shown in Table 2 below.
The enzyme activity of Pin1 protein was measured using a sensolyte Green Pin1 assay kit of Anaspec. The substrate was diluted in a buffer at a ratio of 1:100 to prepare a concentration of 1 μM, and the protein was diluted in a buffer at a ratio of 1:20 to prepare a concentration of 50 μg/ml. In addition, a developing solution was prepared by diluting thereof in a buffer at a ratio of 1:100.
The compound prepared in each example was diluted with DMSO and prepared at a concentration of 100 μM, 10 μM, 1 μM or 0.1 μM using a buffer. After sequentially adding 10 μl of the compound prepared in each Example diluted to four concentrations according to the above method, 10 μl of Pin1 protein, and 30 μl of the developing solution to each well of a black 96-well plate, […]. Finally, 50 μl of the substrate was added to each well of the plate, and the enzyme reaction was carried out after shaking the plate for 10 seconds.
Then, the plate was incubated for 2 hours at room temperature in an environment without light, and the fluorescence values at 490 nm/520 nm wavelength were measured using a device of Synergy Neo […]. The results are shown in Table 2 below by dividing the grades of A to D for each concentration (μM) at which the Pin1 enzyme activity is inhibited.

[1] = test system: A2780-SP cells (ovarian cancer stem cells); assay: Sphere cell viability of A2780-SP cells (Cell-titer Glo); format: cell-based
Procedure: In order to confirm the inhibitory effect of the compound represented by formula 1 according to the present invention on the growth of MCF7, MCF7-SP, A2780 or A2780-SP cells, the following experiment was performed, and the results are shown in Tables 4 and 5 below.
On the other hand, A2780-SP cells (ovarian cancer stem cells) were plated in an Ultra-Low Attachment round bottom 96-well plate (corning) at the density of 1,500 viable cells per well, and cultured in cancer stem cell medium. The cancer stem cell medium is composed of the neurobasal medium supplemented with 20 ng/ml of bFGF, 10 ng/ml of EGF, […] of amphotericin B, HEPES, Glutamax and B27.
On the next day of culture, the cells were treated with the compound of Examples 57, and 69 to 144, followed by culture for 8 days. The medium containing the compound was added thereto once again on the 4th day. Sphere cell viability was evaluated by Cell-titer Glo (Promega, WC, USA), and luciferase activity was detected using a Tecan plate reader (Biocompare, USA).

[2] = Table 2, read-out: concentration at which Pin1 inhibitory activity was exhibited
[3] = concentration at which the Pin1 enzyme activity is inhibited, 2 hours at room temperature, fluorescence 490 nm/520 nm, read-out: Pin 1 inhibition
[4] = 192 h, sphere cell viability, culture for 8 days, read-out: A2780-SP

T1 sequence (Q13526 whole entry): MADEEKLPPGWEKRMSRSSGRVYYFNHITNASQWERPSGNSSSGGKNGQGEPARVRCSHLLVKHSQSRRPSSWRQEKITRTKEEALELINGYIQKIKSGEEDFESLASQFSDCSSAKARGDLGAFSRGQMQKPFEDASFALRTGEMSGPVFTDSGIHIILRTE

Row | IC50 (Pin1; [2]) [µM] | IC50 (Pin1; [3]) [µM] | IC50 [1, 4] [µM] | IC50 ([1]; Table 5, read-out: the concentration (second list of b710, cell line not named; matches A2780-SP column)) [µM] | SMILES
1 | < 1 | < 1 | 1 to 10 | – | O=S(=O)(NCCCc1c[nH]c2ccc(Cl)cc12)c1ccc(NCCCN2CCNCC2)cc1 [Example 113, N-(3-(5-chloro-1H-indole-3-yl)propyl)-4-((3-(piperazine-1-yl)propyl)amino)benzenesulfonamide]
2 | < 1 | < 1 | 1 to 10 | – | O=S(=O)(NCCCc1c[nH]c2ccc(Cl)cc12)c1ccc(NCCCN2CCCCC2)cc1 [Example 114, N-(3-(5-chloro-1H-indol-3-yl)propyl)-4-((3-(piperidin-1-yl)propyl)amino)benzenesulfonamide]
3 | < 1 | < 1 | < 1 | < 1 | CN1CCC(CCCCc2ccc(S(=O)(=O)NCCCc3c[nH]c4ccc(Cl)cc34)cc2)CC1 [Example 115, N-(3-(5-chloro-1H-indol-3-yl)propyl)-4-(4-(1-methylpiperidin-4-yl)butyl)benzenesulfonamide]
4 | < 1 | < 1 | – | – | CN1CCN(CC2(COc3ccc(S(=O)(=O)NCCCc4c[nH]c5ccc(Cl)cc45)cc3)CC2)CC1 [Example 116, N-(3-(5-chloro-1H-indole-3-yl)propyl)-4-((1-((4-methylpiperazine-1-yl)methyl)cyclopropyl)methoxy)benzenesulfonamide]
5 | < 1 | < 1 | 1 to 10 | – | O=S(=O)(NCCCc1c[nH]c2ccc(Cl)cc12)c1ccc(OCC2(CN3CCNCC3)CC2)cc1 [Example 117, N-(3-(5-chloro-1H-indol-3-yl)propyl)-4-((1-(piperazin-1-ylmethyl)cyclopropyl)methoxy)benzenesulfonamide]
6 | – | 1 to 10 | – | – | O=S(=O)(NCCCc1c[nH]c2ccc(Cl)cc12)c1ccc(Oc2cccc(Br)c2)cc1 [Example 119, 4-(3-bromophenoxy)-N-(3-(5-chloro-1H-indol-3-yl)propyl)benzenesulfonamide]
7 | – | 1 to 10 | – | – | O=S(=O)(NCCCc1c[nH]c2ccc(Cl)cc12)c1ccc(Oc2cccc(N3CCCCC3)c2)cc1 [Example 120, N-(3-(5-chloro-1H-indol-3-yl)propyl)-4-(3-(piperidin-1-yl)phenoxy)benzenesulfonamide]
8 | – | 1 to 10 | – | – | CN1CCCN(c2cccc(Oc3ccc(S(=O)(=O)NCCCc4c[nH]c5ccc(Cl)cc45)cc3)c2)CC1 [Example 122, N-(3-(5-chloro-1H-indol-3-yl)propyl)-4-(3-(4-methyl-1,4-diazepan-1-yl)phenoxy)benzenesulfonamide]
9 | – | 1 to 10 | – | – | O=S(=O)(NCCCc1c[nH]c2ccc(Cl)cc12)c1ccc(Nc2cccc(N3CCOCC3)c2)cc1 [Example 126, N-(3-(5-chloro-1H-indol-3-yl)propyl)-4-((3-morpholinophenyl)amino)benzenesulfonamide]
10 | – | 1 to 10 | – | – | O=S(=O)(NCCCc1c[nH]c2ccc(Cl)cc12)c1ccc(Oc2cccc(N3CCOCC3)c2)cc1 [Example 128, N-(3-(5-chloro-1H-indol-3-yl)propyl)-4-(3-morpholinophenoxy)benzenesulfonamide]
11 | – | 1 to 10 | – | – | O=S(=O)(NCCCc1c[nH]c2ccc(Cl)cc12)c1ccc(Oc2cccc(N3CCCNCC3)c2)cc1 [Example 129, 4-(3-(1,4-diazepan-1-yl)phenoxy)-N-(3-(5-chloro-1H-indol-3-yl)propyl)benzenesulfonamide]
12 | – | 1 to 10 | – | – | CN1CCN(c2cccc(Nc3ccc(S(=O)(=O)NCCCc4c[nH]c5ccc(Cl)cc45)cc3)n2)CC1 [Example 131, N-(3-(5-chloro-1H-indol-3-yl)propyl)-4-((6-(4-methylpiperazin-1-yl)pyridin-2-yl)amino)benzenesulfonamide]
13 | – | 1 to 10 | – | – | O=S(=O)(NCCCc1c[nH]c2ccc(Cl)cc12)c1ccc(Nc2cccc(N3CCNCC3)n2)cc1 [Example 132, N-(3-(5-chloro-1H-indol-3-yl)propyl)-4-((6-(piperazin-1-yl)pyridin-2-yl)amino)benzenesulfonamide]
14 | – | 1 to 10 | – | – | O=S(=O)(NCCCc1c[nH]c2ccc(Cl)cc12)c1ccc(Oc2cccc(N3CCCC3)c2)cc1 [Example 135, N-(3-(5-chloro-1H-indol-3-yl)propyl)-4-(3-(pyrrolidin-1-yl)phenoxy)benzenesulfonamide]
15 | – | 1 to 10 | – | – | O=S(=O)(NCCCc1c[nH]c2ccc(Cl)cc12)c1ccc(Oc2cccc(N3CCC(O)CC3)c2)cc1 [Example 136, N-(3-(5-chloro-1H-indol-3-yl)propyl)-4-(3-(4-hydroxypiperidin-1-yl)phenoxy)benzenesulfonamide]
16 | – | 1 to 10 | – | – | O=S(=O)(NCCCc1c[nH]c2ccc(Cl)cc12)c1ccc(Nc2cccc(N3CCC(O)CC3)c2)cc1 [Example 139, N-(3-(5-chloro-1H-indol-3-yl)propyl)-4-((3-(4-hydroxypiperidin-1-yl)phenyl)amino)benzenesulfonamide]
17 | < 1 | < 1 | 1 to 10 | – | CN1CCN(c2cc(Cl)nc(Nc3ccc(S(=O)(=O)NCCCc4c[nH]c5ccc(Cl)cc45)cc3)c2)CC1 [Example 140, N-(3-(5-chloro-1H-indol-3-yl)propyl)-4-((6-chloro-4-(4-methylpiperazin-1-yl)pyridin-2-yl)amino)benzenesulfonamide]
18 | – | 1 to 10 | – | – | CN1CCN(c2ccc(Nc3ccc(S(=O)(=O)NCCCc4c[nH]c5ccc(Cl)cc45)cc3)cc2)CC1 [Example 142, N-(3-(5-chloro-1H-indol-3-yl)propyl)-4-((4-(4-methylpiperazin-1-yl)phenyl)amino)benzenesulfonamide]
19 | – | 1 to 10 | – | – | O=C(NCCCc1c[nH]c2ccc(Cl)cc12)c1ccc(OCCCN2CCNCC2)cc1 [Example 144, N-(3-(5-chloro-1H-indol-3-yl)propyl)-4-(3-(piperazin-1-yl)propoxy)benzamide]
20 | – | 1 to 10 | – | – | O=S(=O)(NCCCc1c[nH]c2ccc(-c3ccccc3)cc12)c1ccc(OCCCN2CCNCC2)cc1 [Example 155, N-(3-(5-phenyl-1H-indol-3-yl)propyl)-4-(3-(piperazin-1-yl)propoxy)benzenesulfonamide]
21 | – | 1 to 10 | – | – | CN1CCN(CCCOc2ccc(S(=O)(=O)NCCCc3c[nH]c4ccc(-c5ccccc5)cc34)cc2)CC1 [Example 156, 4-(3-(4-methylpiperazin-1-yl)propoxy)-N-(3-(5-phenyl-1H-indol-3-yl)propyl)benzenesulfonamide]
22 | – | 1 to 10 | – | – | CN1CCN(CCCOc2ccc(S(=O)(=O)NCCCc3c[nH]c4ccc(Cl)cc34)cc2)CC1=O [Example 162, N-(3-(5-chloro-1H-indol-3-yl)propyl)-4-(3-(4-methyl-3-oxopiperazin-1-yl)propoxy)benzenesulfonamide]
23 | – | 1 to 10 | – | – | O=C1CN(CCCOc2ccc(S(=O)(=O)NCCCc3c[nH]c4ccc(Cl)cc34)cc2)CCN1 [Example 163, N-(3-(5-chloro-1H-indol-3-yl)propyl)-4-(3-(3-oxopiperazin-1-yl)propoxy)benzenesulfonamide]
24 | – | 1 to 10 | – | – | CN1CCN(CCCOc2ccc(S(=O)(=O)NC3CCCC(c4c[nH]c5ccc(Cl)cc45)C3)cc2)CC1 (stereo not drawn) [Example 179, N-(3-(5-chloro-1H-indol-3-yl)cyclohexyl)-4-(3-(4-methylpiperazin-1-yl)propoxy)benzenesulfonamide]
25 | – | 1 to 10 | – | – | O=S(=O)(NC1CCCC(c2c[nH]c3ccc(Cl)cc23)C1)c1ccc(OCCCN2CCNCC2)cc1 (stereo not drawn) [Example 180, N-(3-(5-chloro-1H-indol-3-yl)cyclohexyl)-4-(3-(piperazin-1-yl)propoxy)benzenesulfonamide]
26 | – | 1 to 10 | – | – | CN1CCN(CCCOc2ccc(S(=O)(=O)Nc3ccccc3C(C)(C)c3c[nH]c4ccc(Cl)cc34)cc2)CC1 [Example 181, N-(2-(2-(5-chloro-1H-indole-3-yl)propane-2-yl)phenyl)-4-(3-(4-methylpiperazine-1-yl)propoxy)benzenesulfonamide]
27 | – | 1 to 10 | – | – | CC(C)(c1ccccc1NS(=O)(=O)c1ccc(OCCCN2CCNCC2)cc1)c1c[nH]c2ccc(Cl)cc12 [Example 182, N-(2-(2-(5-chloro-1H-indol-3-yl)propan-2-yl)phenyl)-4-(3-(piperazin-1-yl)propoxy)benzenesulfonamide]
